From ChEMBL document CHEMBL4304811, “Development of a Water-Soluble Indolylmaleimide Derivative IM-93 Showing Dual Inhibition of Ferroptosis and NETosis” (ACS Med Chem Lett, 2019)

Legend:
[1] = tested on: Phosphatidylinositol 4,5-bisphosphate 3-kinase catalytic subunit alpha isoform (Homo sapiens), P42336 [M1043I]; assay: Binding affinity to human partial length PIK3CA M1043I mutant (R108 to N1068 residues) expressed in mammalian expression system assessed as residual binding level at 10 uM by Kinomescan method relative to control
[2] = target: Serine/threonine-protein kinase 17A (Homo sapiens) (UniProt Q9UEE5); assay: Binding affinity to wild-type human partial length DRAK1 (R32 to E363 residues) expressed in bacterial expression system assessed as residual binding level at 10 uM by Kinomescan method relative to control
[3] = target: Muscle, skeletal receptor tyrosine-protein kinase (Homo sapiens) (UniProt O15146); assay: Binding affinity to wild-type human partial length MUSK (M553 to V869 residues) expressed in bacterial expression system assessed as residual binding level at 10 uM by Kinomescan method relative to control
[4] = target: Activin receptor type-2B (Homo sapiens) (UniProt Q13705); assay: Binding affinity to wild-type human ACVR2B (H169 to D504 residues) expressed in bacterial expression system assessed as residual binding level at 10 uM by Kinomescan method relative to control
[5] = target: Tyrosine-protein kinase receptor TYRO3 (Homo sapiens) (UniProt Q06418); assay: Binding affinity to wild-type human partial length TYRO3 (S497 to T814 residues) expressed in bacterial expression system assessed as residual binding level at 10 uM by Kinomescan method relative to control
[6] = target: Activin receptor type-2A (Homo sapiens) (UniProt P27037); assay: Binding affinity to wild-type human ACVR2A (V171 to T499 residues) expressed in bacterial expression system assessed as residual binding level at 10 uM by Kinomescan method relative to control
[7] = target: CDK4/Cyclin D3 (Homo sapiens) (UniProt P11802+P30281); assay: Binding affinity to wild-type human full length CDK4/cyclinD3 (M1 to E303 residues) expressed in mammalian expression system assessed as residual binding level at 10 uM by Kinomescan method relative to control
[8] = target: Tyrosine-protein kinase Tec (Homo sapiens) (UniProt P42680); assay: Binding affinity to wild-type human partial length TEC (L341 to D620 residues) expressed in bacterial expression system assessed as residual binding level at 10 uM by Kinomescan method relative to control
[9] = target: Mitogen-activated protein kinase kinase kinase 6 (Homo sapiens) (UniProt O95382); assay: Binding affinity to wild-type human partial length ASK2 (M278 to R972 residues) expressed in mammalian expression system assessed as residual binding level at 10 uM by Kinomescan method relative to control
[10] = target: Serine/threonine-protein kinase PRP4 homolog (Homo sapiens) (UniProt Q13523); assay: Binding affinity to wild-type human partial length PRP4 (D657 to I1007 residues) expressed in bacterial expression system assessed as residual binding level at 10 uM by Kinomescan method relative to control
[11] = target: Rhodopsin kinase GRK7 (Homo sapiens) (UniProt Q8WTQ7); assay: Binding affinity to wild-type human full length GRK7 (M1 to L553 residues) expressed in mammalian expression system assessed as residual binding level at 10 uM by Kinomescan method relative to control
[12] = target: Atypical kinase COQ8A, mitochondrial (Homo sapiens) (UniProt Q8NI60); assay: Binding affinity to wild-type human full length ADCK3 (M280 to Q647 residues) expressed in bacterial expression system assessed as residual binding level at 10 uM by Kinomescan method relative to control
[13] = target: Ephrin type-A receptor 8 (Homo sapiens) (UniProt P29322); assay: Binding affinity to wild-type human partial length EPHA8 (Q608 to C920 residues) expressed in bacterial expression system assessed as residual binding level at 10 uM by Kinomescan method relative to control
[14] = target: Serine/threonine-protein kinase 16 (Homo sapiens) (UniProt O75716); assay: Binding affinity to wild-type human partial length STK16 (G11 to I305 residues) expressed in bacterial expression system assessed as residual binding level at 10 uM by Kinomescan method relative to control
[15] = target: Cyclin-dependent kinase-like 1 (Homo sapiens) (UniProt Q00532); assay: Binding affinity to wild-type human full length CDKL1 (M1 to I358 residues) expressed in mammalian expression system assessed as residual binding level at 10 uM by Kinomescan method relative to control
[16] = tested on: Tyrosine-protein kinase ABL1 (Homo sapiens), P00519 [M351T]; assay: Binding affinity to human phosphorylated ABL1 M351T mutant (S229 to K512 residues) expressed in mammalian expression system assessed as residual binding level at 10 uM by Kinomescan method relative to control
[17] = target: Tyrosine-protein kinase JAK1 (Homo sapiens) (UniProt P23458); assay: Binding affinity to wild-type human partial length JAK1 JH2 pseudokinase domain (R537 to D855 residues) expressed in mammalian expression system assessed as residual binding level at 10 uM by Kinomescan method relative to control
[18] = target: Leucine-rich repeat serine/threonine-protein kinase 2 (Homo sapiens) (UniProt Q5S007); assay: Binding affinity to wild-type human partial length LRRK2 (H970 to E2527 residues) expressed in mammalian expression system assessed as residual binding level at 10 uM by Kinomescan method relative to control
[19] = target: Serine/threonine-protein kinase 38-like (Homo sapiens) (UniProt Q9Y2H1); assay: Binding affinity to wild-type human partial length NDR2 (N34 to E447 residues) expressed in bacterial expression system assessed as residual binding level at 10 uM by Kinomescan method relative to control
[20] = target: Serine/threonine-protein kinase ICK (Homo sapiens) (UniProt Q9UPZ9); assay: Binding affinity to wild-type human partial length ICK (M1 to P314 residues) expressed in mammalian expression system assessed as residual binding level at 10 uM by Kinomescan method relative to control
[21] = target: Cyclin-dependent kinase 13 (Homo sapiens) (UniProt Q14004); assay: Binding affinity to wild-type human partial length CDC2L5 (H675 to S1054 residues) expressed in mammalian expression system assessed as residual binding level at 10 uM by Kinomescan method relative to control
[22] = target: Cyclin-dependent kinase-like 3 (Homo sapiens) (UniProt Q8IVW4); assay: Binding affinity to wild-type human partial length CDKL3 (M1 to D327 residues) expressed in bacterial expression system assessed as residual binding level at 10 uM by Kinomescan method relative to control
[23] = target: SRSF protein kinase 2 (Homo sapiens) (UniProt P78362); assay: Binding affinity to wild-type human full length SRPK2 (M1 to S686 residues) expressed in bacterial expression system assessed as residual binding level at 10 uM by Kinomescan method relative to control
[24] = target: Ribosomal protein S6 kinase alpha-6 (Homo sapiens) (UniProt Q9UK32); assay: Binding affinity to wild-type human partial length N- terminal RSK4 kinase domain 1 (M1 to E397 residues) expressed in mammalian expression system assessed as residual binding level at 10 uM by Kinomescan method relative to control

Sequence of Phosphatidylinositol 4,5-bisphosphate 3-kinase catalytic subunit alpha isoform (Homo sapiens), P42336 [M1043I] (P42336 whole entry M1043I, the tested form may be a part, canonical isoform): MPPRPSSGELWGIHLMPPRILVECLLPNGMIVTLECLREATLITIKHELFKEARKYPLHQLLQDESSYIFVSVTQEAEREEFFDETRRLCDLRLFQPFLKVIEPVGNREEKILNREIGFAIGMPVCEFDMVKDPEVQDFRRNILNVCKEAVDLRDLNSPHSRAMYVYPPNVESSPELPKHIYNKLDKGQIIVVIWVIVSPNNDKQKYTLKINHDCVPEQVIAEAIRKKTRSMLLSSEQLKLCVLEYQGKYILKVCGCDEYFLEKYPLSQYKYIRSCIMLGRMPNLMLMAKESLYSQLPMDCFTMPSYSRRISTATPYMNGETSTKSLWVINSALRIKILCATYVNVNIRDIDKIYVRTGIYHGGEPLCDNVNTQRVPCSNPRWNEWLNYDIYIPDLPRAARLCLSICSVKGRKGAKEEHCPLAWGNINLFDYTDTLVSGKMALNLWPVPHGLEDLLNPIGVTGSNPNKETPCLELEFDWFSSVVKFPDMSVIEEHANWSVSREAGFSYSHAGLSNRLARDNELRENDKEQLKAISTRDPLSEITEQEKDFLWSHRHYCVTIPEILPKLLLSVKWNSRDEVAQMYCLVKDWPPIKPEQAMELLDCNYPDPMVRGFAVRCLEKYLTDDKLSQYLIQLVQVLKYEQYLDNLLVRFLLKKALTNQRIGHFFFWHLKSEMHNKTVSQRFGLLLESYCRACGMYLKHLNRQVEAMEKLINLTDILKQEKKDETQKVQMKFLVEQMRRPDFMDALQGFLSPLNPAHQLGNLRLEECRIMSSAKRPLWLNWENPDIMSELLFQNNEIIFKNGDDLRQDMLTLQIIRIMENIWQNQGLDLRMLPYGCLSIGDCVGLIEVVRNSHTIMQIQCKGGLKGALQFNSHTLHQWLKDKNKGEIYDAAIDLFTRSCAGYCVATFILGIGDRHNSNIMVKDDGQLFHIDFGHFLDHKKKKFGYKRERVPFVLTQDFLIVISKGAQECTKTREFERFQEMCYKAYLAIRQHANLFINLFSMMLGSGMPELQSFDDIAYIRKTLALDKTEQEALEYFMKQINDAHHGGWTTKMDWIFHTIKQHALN
Sequence of Cyclin-dependent kinase 13 (Homo sapiens) (Q14004 whole entry, looked up, the tested form may be a part): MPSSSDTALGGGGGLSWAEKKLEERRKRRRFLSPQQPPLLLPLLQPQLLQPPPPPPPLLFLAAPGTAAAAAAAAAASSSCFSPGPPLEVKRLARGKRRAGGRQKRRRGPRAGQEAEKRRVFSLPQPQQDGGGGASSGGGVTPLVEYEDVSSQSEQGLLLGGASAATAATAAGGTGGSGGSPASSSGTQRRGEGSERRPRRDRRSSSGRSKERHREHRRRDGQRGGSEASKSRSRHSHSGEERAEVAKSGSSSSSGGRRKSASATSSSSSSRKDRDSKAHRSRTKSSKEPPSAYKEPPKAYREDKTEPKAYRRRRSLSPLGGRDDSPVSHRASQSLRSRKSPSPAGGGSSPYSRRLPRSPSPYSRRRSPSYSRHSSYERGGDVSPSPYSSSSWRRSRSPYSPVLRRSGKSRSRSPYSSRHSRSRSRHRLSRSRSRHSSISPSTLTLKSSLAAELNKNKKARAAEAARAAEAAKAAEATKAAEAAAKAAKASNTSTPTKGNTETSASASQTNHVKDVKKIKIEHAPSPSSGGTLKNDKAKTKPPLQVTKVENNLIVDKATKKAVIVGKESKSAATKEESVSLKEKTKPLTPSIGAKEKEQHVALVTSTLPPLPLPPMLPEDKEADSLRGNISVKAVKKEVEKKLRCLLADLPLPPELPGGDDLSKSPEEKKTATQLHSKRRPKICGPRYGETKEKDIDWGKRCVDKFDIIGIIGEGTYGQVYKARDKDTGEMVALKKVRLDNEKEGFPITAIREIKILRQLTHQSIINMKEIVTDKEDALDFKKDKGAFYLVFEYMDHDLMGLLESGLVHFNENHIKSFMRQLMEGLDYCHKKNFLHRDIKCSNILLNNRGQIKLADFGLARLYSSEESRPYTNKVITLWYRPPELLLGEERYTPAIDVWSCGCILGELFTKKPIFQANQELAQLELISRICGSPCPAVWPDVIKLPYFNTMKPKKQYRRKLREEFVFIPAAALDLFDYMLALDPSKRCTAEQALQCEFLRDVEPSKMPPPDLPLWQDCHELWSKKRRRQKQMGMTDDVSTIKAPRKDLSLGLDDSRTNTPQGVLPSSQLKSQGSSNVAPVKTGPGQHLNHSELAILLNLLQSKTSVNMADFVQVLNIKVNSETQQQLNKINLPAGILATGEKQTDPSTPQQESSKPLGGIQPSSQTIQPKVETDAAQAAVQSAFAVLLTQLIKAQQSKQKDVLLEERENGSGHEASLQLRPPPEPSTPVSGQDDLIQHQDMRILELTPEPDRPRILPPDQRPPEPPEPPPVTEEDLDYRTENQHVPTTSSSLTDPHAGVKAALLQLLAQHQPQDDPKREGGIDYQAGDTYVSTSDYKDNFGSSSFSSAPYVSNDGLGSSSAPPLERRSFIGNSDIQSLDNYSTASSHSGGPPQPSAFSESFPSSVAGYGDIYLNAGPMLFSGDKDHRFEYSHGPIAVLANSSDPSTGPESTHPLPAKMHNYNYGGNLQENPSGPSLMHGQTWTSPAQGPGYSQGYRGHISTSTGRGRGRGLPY
Sequence of Activin receptor type-2A (Homo sapiens) (P27037 whole entry, the tested form may be a part): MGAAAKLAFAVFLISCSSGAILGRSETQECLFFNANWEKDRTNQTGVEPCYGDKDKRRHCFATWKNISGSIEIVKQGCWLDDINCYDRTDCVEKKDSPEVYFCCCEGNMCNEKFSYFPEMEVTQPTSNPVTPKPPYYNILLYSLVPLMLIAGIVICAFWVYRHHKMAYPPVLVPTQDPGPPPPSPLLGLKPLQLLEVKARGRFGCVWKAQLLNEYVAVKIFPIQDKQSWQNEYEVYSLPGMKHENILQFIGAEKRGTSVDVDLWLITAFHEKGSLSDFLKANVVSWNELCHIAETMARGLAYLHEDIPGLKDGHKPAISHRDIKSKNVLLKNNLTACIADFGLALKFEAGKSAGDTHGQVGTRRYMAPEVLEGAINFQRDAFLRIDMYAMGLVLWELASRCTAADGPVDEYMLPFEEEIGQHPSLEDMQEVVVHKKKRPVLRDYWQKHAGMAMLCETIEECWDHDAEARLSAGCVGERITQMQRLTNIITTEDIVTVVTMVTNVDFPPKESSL
Sequence of Activin receptor type-2B (Homo sapiens) (Q13705 whole entry, the tested form may be a part): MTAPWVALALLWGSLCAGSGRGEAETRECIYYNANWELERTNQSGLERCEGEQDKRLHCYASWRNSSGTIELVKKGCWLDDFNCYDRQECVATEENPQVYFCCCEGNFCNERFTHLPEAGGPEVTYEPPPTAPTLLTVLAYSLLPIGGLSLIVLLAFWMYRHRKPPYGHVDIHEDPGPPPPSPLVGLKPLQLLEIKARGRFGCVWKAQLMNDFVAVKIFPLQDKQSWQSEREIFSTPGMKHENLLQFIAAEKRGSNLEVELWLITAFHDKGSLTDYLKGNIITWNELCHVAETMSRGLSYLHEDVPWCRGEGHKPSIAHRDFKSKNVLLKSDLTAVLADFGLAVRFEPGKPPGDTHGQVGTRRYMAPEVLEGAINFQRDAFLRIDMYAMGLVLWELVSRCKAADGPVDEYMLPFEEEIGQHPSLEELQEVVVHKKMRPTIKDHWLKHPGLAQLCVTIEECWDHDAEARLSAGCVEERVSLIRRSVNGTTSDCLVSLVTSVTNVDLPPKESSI
Sequence of Mitogen-activated protein kinase kinase kinase 6 (Homo sapiens) (O95382 whole entry, the tested form may be a part): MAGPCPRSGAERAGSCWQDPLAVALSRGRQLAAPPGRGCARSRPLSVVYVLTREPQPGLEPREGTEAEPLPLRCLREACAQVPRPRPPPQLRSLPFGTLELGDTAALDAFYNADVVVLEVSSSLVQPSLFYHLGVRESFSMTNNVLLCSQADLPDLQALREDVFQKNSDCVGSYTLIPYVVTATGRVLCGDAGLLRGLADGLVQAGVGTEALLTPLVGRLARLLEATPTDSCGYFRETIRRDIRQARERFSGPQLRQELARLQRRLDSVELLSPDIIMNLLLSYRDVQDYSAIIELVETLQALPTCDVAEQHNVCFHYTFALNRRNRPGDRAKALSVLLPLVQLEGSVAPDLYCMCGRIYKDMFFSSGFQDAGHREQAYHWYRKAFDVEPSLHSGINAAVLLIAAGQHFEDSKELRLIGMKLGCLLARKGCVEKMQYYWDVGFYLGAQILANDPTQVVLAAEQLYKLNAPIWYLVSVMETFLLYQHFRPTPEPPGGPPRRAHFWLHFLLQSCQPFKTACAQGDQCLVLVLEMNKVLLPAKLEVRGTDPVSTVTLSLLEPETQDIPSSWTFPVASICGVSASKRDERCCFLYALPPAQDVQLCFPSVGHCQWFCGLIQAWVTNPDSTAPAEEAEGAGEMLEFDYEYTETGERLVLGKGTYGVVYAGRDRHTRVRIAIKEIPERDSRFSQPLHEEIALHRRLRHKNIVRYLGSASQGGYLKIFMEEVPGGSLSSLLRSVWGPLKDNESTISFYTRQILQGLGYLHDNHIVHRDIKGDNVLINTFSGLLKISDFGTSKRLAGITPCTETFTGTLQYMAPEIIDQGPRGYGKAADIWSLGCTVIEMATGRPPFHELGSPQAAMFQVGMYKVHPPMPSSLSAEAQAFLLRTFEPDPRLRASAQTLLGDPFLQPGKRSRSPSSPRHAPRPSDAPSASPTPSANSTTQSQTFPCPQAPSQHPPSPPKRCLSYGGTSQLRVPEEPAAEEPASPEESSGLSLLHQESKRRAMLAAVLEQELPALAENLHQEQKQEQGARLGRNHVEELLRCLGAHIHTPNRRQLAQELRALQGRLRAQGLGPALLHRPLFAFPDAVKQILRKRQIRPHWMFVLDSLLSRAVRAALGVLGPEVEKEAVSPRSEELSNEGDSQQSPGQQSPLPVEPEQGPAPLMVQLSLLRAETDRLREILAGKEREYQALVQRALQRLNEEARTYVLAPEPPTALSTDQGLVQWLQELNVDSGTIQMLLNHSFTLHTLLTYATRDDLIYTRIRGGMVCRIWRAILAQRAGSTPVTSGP

With `CC(C)N1C(=O)C(NCCCN(C)C)=C(c2cn(C)c3ccccc23)C1=O.Cl` the Activity [1] was 67%, the Activity [2] was 97% and the Activity [3] was 100%. It also gave an Activity [4] of 96%, an Activity [5] of 100% and an Activity [6] of 100%. For the same compound, the Activity [7] was 93%, the Activity [8] was 99% and the Activity [9] was 98%. It also gave an Activity [10] of 86%, an Activity [11] of 97% and an Activity [12] of 91%. For the same compound, the Activity [13] was 89%, the Activity [14] was 99% and the Activity [15] was 73%. The Activity [16] was 93%, the Activity [17] was 88% and the Activity [18] was 94%. It also gave an Activity [19] of 74%, an Activity [20] of 81% and an Activity [21] of 99%. For the same compound, the Activity [22] was 100%, the Activity [23] was 100% and the Activity [24] was 94%.
